Counter-ions that a name gives are not always drawn.
How the values were obtained:
C. tropicalis ATCC 750 = test: Biofilm formation on bone cement (Palacos r) model implants in infected femur head; design: species or system Candida tropicalis; settings: cements implanted inside infected holes; 2 days; single experiment, / = two implants
Source text: (§1) The poly(methyl methacrylate)-based bone cement with or without AMPs was implanted either inside infected holes or inside non-infected holes. In the latter case, the microbes infiltrated towards the implant from a hole made between them at roughly equal distance from each (Figure 3). This would simulate the authentic situation in which the pathogens can infect an orthopaedic implant by spreading through the bloodstream or contiguously from areas of infection. We evaluated the experiments on the basis of the amounts of microbes released from the biofilms supposedly formed on the surfaces of the implants that were removed from the infected bone samples.
(§2) The bone samples with bored holes inside were prepared and handled as above. The bone cement (Palacos®r, Hereaus Medical GmbH, Wehrheim, Germany) with AMP incorporated was prepared by swift and thorough mixing of the polymer powder component (poly-methylacrylate, methyl methacrylate, 125 mg) and AMP (10 mg) or antibiotic (10 mg) with the liquid monomer (methyl methacrylate, N,N-dimethyl-p-toluidine, hydroquinone and colorant E141, 70 μL). The resulting elastic paste was pressed using a 2 mL plastic syringe into two bored holes, where it polymerized and solidified. The paste without peptide for filling of the remaining two holes was prepared similarly by mixing the powder component (125 mg) and liquid component (68 μL). […]

[1] = test system: MRSA clinical isolate from University Hospital in Motol (MRSA (M)); test: as above; design: species or system Staphylococcus aureus; settings: cements implanted inside infected holes; Palacos r with peptide or antibiotic; 2 days; single experiment, / = two implants
Source text: as §1, §2

[2] = test system: P. aeruginosa clinical isolate from Liberec Regional Hospital; test: microbe, parasite or virus in culture; assay type: cell-based; settings: Pseudomonas aeruginosa, read-out: Antimicrobial Activity MIC, P. a. a
Method: (§3) Femur heads (ca. 70 pieces) taken from patients during hip replacement surgery were periodically purchased in the period between 2014–2017 as discarded from the bone tissue bank at University Hospital in Motol, Prague, Czech Republic. The reason for the replacements by artificial prosthesis was the worn out cartilage on the surface of their heads. Bone samples were stored at −80 °C under standard conditions of certified tissue banks. In the laboratory, they were kept at +5 °C overnight and then at room temperature for several hours before they could be used for the experiments. The experiments with this material were approved by the Ethics Committee for Multi-Centric Clinical Trials of the University Hospital Motol, Reference No: EK-655/15. Methicillin-resistant S. aureus (MRSA 6271) ATCC 43300 and P. aeruginosa (5482) ATCC 27853 were purchased from the Czech National Collection of Type Cultures, National Institute of Public Health, Prague, Czech Republic. Methicillin-resistant S. aureus (MRSA (L)) and P. aeruginosa (L) were obtained as multi-resistant clinical isolates from Liberec Regional Hospital, Liberec, Czech Republic. Methicillin-resistant S. aureus (MRSA (M)), E. faecalis and S. epidermidis were obtained as clinical isolates from University Hospital in Motol, Prague. Candida albicans (F7-39/IDE99) came from the mycological collection of the Faculty of Medicine, Palacky University, Olomouc, Czech Republic. C. albicans ATCC MYA-2876, C. tropicalis ATCC 750 and C. glabrata DSY565 were kindly provided by Dr. Hana Sychrová from the Institute of Physiology, Academy of Sciences of the Czech Republic, Prague. Vancomycin hydrochloride, gentamicin sulfate, ceftriaxone disodium salt, amphotericin B, fluconazole, and clotrimazole were obtained from Sigma-Aldrich, Prague, Czech Republic.
(§4) MIC values for peptides were established by observing growth of treated bacteria in HONEYCOMB 100-well microtiter plates (Helsinki, Finland) using a Bioscreen C instrument (Oy Growth Curves, Helsinki, Finland) as previously described. Haemolytic activity of peptides expressed as the concentration of a peptide required for lysis of 50% of human erythrocytes in the assay (LC50) was measured using a Tecan infinite M200 PRO reader (Tecan Austria GmbH, Grödig, Austria). Blood samples for determining haemolytic activity were obtained from healthy volunteers.

[3] = test system: E. faecalis clinical isolate (Motol); test: microbe, parasite or virus in culture; assay type: cell-based; settings: Enterococcus faecalis, read-out: Antimicrobial Activity MIC, E. f. b
Method: as §3, §4

[4] = test system: MRSA clinical isolate from Liberec Regional Hospital (MRSA (L)); test: microbe, parasite or virus in culture; assay type: cell-based; settings: Staphylococcus aureus, MRSA, read-out: Antimicrobial Activity MIC, MRSA a
Method: as §3, §4

MRSA 6271 (ATCC 43300) = test: microbe, parasite or virus in culture; assay type: cell-based; settings: Staphylococcus aureus, read-out: Antimicrobial Activity MIC, MRSA 6271
Method: as §3, §4

[5] = test system: MRSA clinical isolate from University Hospital in Motol (MRSA (M)); test: microbe, parasite or virus in culture; assay type: cell-based; settings: Staphylococcus aureus, MRSA, read-out: Antimicrobial Activity MIC, MRSA b
Method: as §3, §4

[6] = test system: P. aeruginosa (5482) ATCC 27853; test: microbe, parasite or virus in culture; assay type: cell-based; settings: Pseudomonas aeruginosa, ATCC27853, read-out: Antimicrobial Activity MIC, P. a. 5482
Method: as §3, §4

[7] = test system: S. epidermidis clinical isolate (Motol); test: microbe, parasite or virus in culture; assay type: cell-based; settings: Staphylococcus epidermidis, read-out: Antimicrobial Activity MIC, S. e. b
Method: as §3, §4

E. faecalis = test: Biofilm formation on bone cement (Palacos r) model implants in infected femur head; design: species or system Enterococcus faecalis; settings: cements implanted inside infected holes; 2 days; single experiment
Source text: as §1, §2

`C[C@@H]1[C@H](O)[C@@H](C)/C=C/C=C/C=C/C=C/C=C/C=C/C=C/[C@H](O[C@@H]2O[C@H](C)[C@@H](O)[C@H](N)[C@@H]2O)C[C@@H]2O[C@](O)(C[C@@H](O)C[C@@H](O)[C@H](O)CC[C@@H](O)C[C@@H](O)CC(=O)O[C@H]1C)C[C@H](O)[C@H]2C(=O)O` [Amphotericin B, amphotericin B] was tested, and the “CFU/Implant, * C. tropicalis” value (C. tropicalis ATCC 750) was 1.3 × 10^6 CFU/implant.
In the case of `CN[C@H](CC(C)C)C(=O)N[C@H]1C(=O)N[C@@H](CC(N)=O)C(=O)N[C@H]2C(=O)N[C@H]3C(=O)N[C@H](C(=O)N[C@H](C(=O)O)c4cc(O)cc(O)c4-c4cc3ccc4O)[C@H](O)c3ccc(c(Cl)c3)Oc3cc2cc(c3O[C@@H]2O[C@H](CO)[C@@H](O)[C@H](O)[C@H]2O[C@H]2C[C@](C)(N)[C@H](O)[C@H](C)O2)Oc2ccc(cc2Cl)[C@H]1O` [Vancomycin, Vancomycin hydrochloride, reference compound], the “CFU/Implant, *MRSA b” value [1] is reported as 4.0 × 10^6 CFU/implant, the MIC [2] is reported as > 320 µM and the MIC [3] is reported as 1.3 µM. It also gave an MIC [4] of 1.1 µM, an MIC (MRSA 6271 (ATCC 43300)) of 0.9 µM and an MIC [5] of 1.1 µM. For the same compound, the MIC [6] was > 200 µM, the MIC [7] was 1.5 µM and the “CFU/Implant, *E. f.” value (E. faecalis) was 4.0 × 10^6 CFU/implant.

Reference: article PMC5874716, “Antimicrobial Peptides for Topical Treatment of Osteomyelitis and Implant-Related Infections: Study in the Spongy Bone” (Pharmaceuticals, 2018)
